Molecules are shown by their SMILES. A value given as a limit tells only on which side of the number the result lay.

One experiment relates to PnaC. Kind of experiment: PnaC dipeptide ligation reactions (LC-HRMS). In kind it is biochemical, Streptomyces sp. NRRL S-515. To be noted: role: substrate. The method, then: (§1) These hypotheses were tested by overproducing and purifying recombinant PnaB and PnaC from E. coli for use in a series of biochemical assays. PnAla, Ala, and ATP were incubated with PnaB or PnaC and the reactions were monitored by ^31P NMR and LC-HRMS. […] To determine if either enzyme could convert Ala-Val into phosphonoalamide A, protein was removed from the PnaC reaction by ultrafiltration and Ala, ATP, and fresh PnaC or PnaB was added to the filtrate. LC-HRMS identified PnAla-Ala-Val as a product following the addition of PnaB, but not PnaC (FIG. 25A-FIG. 25C).
The ATP-Grasp ligases PnaC and PnaB underlie diversification of L-PnAla-containing oligopeptides. To understand the biochemical nature of this potential phosphonopeptide diversity, the substrate specificity of the dipeptide ligase PnaC was first delineated. Microscale biochemical reactions containing purified PnaC were performed with every combination of the 20 canonical amino acids and L-allo-threonine (231 total pairs of substrates). Reactions were analyzed by LC-HRMS to reveal putative dipeptides from 146 out of the 231 combinations. To distinguish residues in reactions containing isomeric pairs (e.g., Ile and Leu, Thr and allo-Thr) new reactions were prepared using ^15N-Ile and 4-^13C-2,3-D2-Thr as substrates. LC-HRMS/MS fragmentation analysis was then performed to verify all products and determine structures.
Biochemical assays of His6-PnaC. Typical reaction mixtures ([…]) contained 10 μM His6-PnaC, […], 3 mM of each L-amino acid, and 5 mM ATP in 50 mM Tris-HCl, 100 mM NaCl, 2 mM MgCl2 pH 9. Reactions were incubated at 30° C. for 16 hours, heat inactivated at 65° C. for 10 minutes, and then analyzed by LC-MS as described above.
Analysis of PnaC and PnaB substrate specificity reactions. An extracted ion chromatogram (EIC) was obtained for each potential product m z. The shape and retention time of each EIC were used to evaluate the quality and plausibility of true signals, and samples with low-confidence EICs were re-analyzed individually, to address the challenges of ion suppression (FIG. 31A-FIG. 31C) and background noise (FIG. 32A-FIG. 32D).

Experiment [1] has as its system phosphoserine phosphatases. To be noted: role: inhibitor; cited from earlier work.
The test system of the next experiment is PnaB. Kind of experiment: PnaB ligation reactions (31P NMR, LC-HRMS). To be noted: role: substrate. The format is biochemical, Streptomyces sp. NRRL S-515. The protocol: as §1
Biochemical assays of His6-PnaB. Typical reaction mixtures ([…]) contained 10 μM His6-PnaB, 3 mM ATP, 1 mM L-PnAla, 3 mM chemically synthesized L-Ala-L-Val, L-Val-L-Val, L-Ala-L-Ile, or L-Thr-L-Val in 50 mM Tris-HCl, 100 mM NaCl, 2 mM MgCl2 pH 9. Reactions were incubated at 30° C. for 2 hours, heat inactivated at 65° C. for 10 minutes, and then analyzed by NMR and LC-MS as described above.

Experiment [2] relates to PnaA. Kind of experiment: PnaA kinetics: conversion of L-PnAla and OAA to PnPy and L-Asp, coupled to PnPy reductase VlpB/NADH oxidation. The format is biochemical, Streptomyces sp. NRRL S-515. To be noted: second substrate OAA 5 mM. The protocol: (§2) Next, kinetic analyses were performed to derive insight on the substrate specificity and reaction selectivity of PnaA transamination. Apparent steady state parameters were calculated in spectrophotometric assays by coupling the formation of OAA, PnPy, and 2KG with NADH oxidation in the presence of malate dehydrogenase (MDH), PnPy reductase (VlpB), and 3-phosphoglycerate dehydrogenase (SerA), respectively (FIG. 18A-FIG. 24B). […] The micromolar Km value observed for PnaA with PnPy is similar to that of other PepM coupling enzymes such as PnPy decarboxylase [B27, B30].
(§3) Kinetic analyses. All reactions (400 μL) were performed in 50 mM HEPES, 150 mM NaCl, pH 7.5, 30° C. using an Agilent Cary 300 spectrophotometer. The instrument was first blanked using the reaction containing the enzymes and the fixed substrate (without NADH). Initial rates were calculated from continual changes in absorbance (340 nm) before and after substrate addition. Data were analyzed using SigmaPlot 15.
Conversion of L-PnAla and OAA to PnPy and L-Asp by His6-SUMO-PnaA. Each reaction contained 1 μM PnaA, 5 μM VlpB, 200 uM NADH, 5 mM OAA, the 340 nm absorbance change was recorded for 1 min to measure the background assumption of OAA by VlpB. Then the reactions were initiated by the addition of 0.1, 0.2, 0.35, 0.5, 0.65, 0.8, or 1 mM PnAla. PnaA was pre-incubated with PLP (1:5) on ice for 10 min prior to use.

Experiment [3] deals with metabotropic glutamate receptors. To be noted: cerebral tissues; cited from earlier work.
The next experiment deals with PnaA with PnaD. The experiment in a line: PnaD-PnaA coupled forward reaction, 31P NMR (PEP to PnAla). In kind it is biochemical, Streptomyces sp. NRRL S-515. Conditions: role: product, PEP 1.5 mM, 2 hours. The method, then: Biochemical assays of His6-SUMO-PnaA with His6-PnaD. Typical reaction mixtures (300 μL) contained 20 μM His6-PnaD, 20 μM His6-SUMO-PnaA, 1.5 mM PEP, 3 mM L-Asp, 100 μM pyridoxal 5′-phosphate (PLP), and 2 mM MgCl2 in 50 mM HEPES, 150 mM NaCl, pH 7.5. Reactions were incubated at 30° C. for 2 hours, heat inactivated at 65° C. for 10 minutes, and then analyzed by ^31P NMR and LC-MS as described above.
Reactions in timecourse experiments ([…]) contained 10 μM His6-PnaD, 10 μM His6-SUMO-PnaA, 1.5 mM PEP, 10 mM L-Asp, 100 μM pyridoxal 5′-phosphate (PLP), and 2 mM MgCl2 in 50 mM HEPES, 150 mM NaCl, pH 7.5. Samples were where heat inactivated 1, 5, 10, 30, 60, 120, and 240 min after initiation and then analyzed by ^31P NMR as described above.
Reactions examining the effect of amino donor concentrations were the same as above, except they contained 1.5, 3, 5, or 10 mM of (L-Asp). Samples were heat inactivated after 120 min and then analyzed by ^31P NMR as described above.

Experiment [4] deals with PnaA. Kind of experiment: PnaA kinetics: conversion of L-Glu and OAA to 2-KG and L-Asp, coupled to SerA/NADH oxidation. In kind it is biochemical, Streptomyces sp. NRRL S-515. To be noted: role: substrate (L-Glu, 0.5-15 mM); second substrate OAA 5 mM; pH 7.5, 30° C. The protocol:
In addition to the transamination of Pn substrates, PnaA was also capable of catalyzing the reversible conversion of Glu and OAA into 2KG and Asp.
as §3
Conversion of L-Glu and OAA to 2-KG and L-Asp by His6-SUMO-PnaA. Each reaction contained 1 μM PnaA, 5 μM SerA, 200 uM NADH, 5 mM OAA, the 340 nm absorbance change was recorded for 1 min to measure the background assumption of OAA by SerA, and were initiated by the addition of 0.5, 1, 1.5, 2, 3, 4, 6, 10, or 15 mM L-Glu. PnaA was pre-incubated with PLP (1:5) on ice for 10 min prior to use.

For another experiment, the system named is bacteria. To be noted: cited from earlier work.
Experiment [5] has as its system PnaA. Kind of experiment: PnaA kinetics: conversion of PnPy and L-Asp to L-PnAla and OAA, coupled to MDH/NADH oxidation (340 nm). The format is biochemical, Streptomyces sp. NRRL S-515. To be noted: role: substrate (PnPy, 0.0025-0.015 mM); second substrate L-Asp 5 mM; pH 7.5, 30° C; apparent steady state. The protocol: as §2, §3
Conversion of PnPy and L-Asp to L-PnAla and OAA by His6-SUMO-PnaA. Each reaction contained 0.5 μM PnaA, 5 μM MDH, 200 uM NADH, 5 mM L-Asp, and were initiated by the addition of 0.0025, 0.00375, 0.005, 0.0065, 0.008, 0.01, or 0.015 mM PnPy. PnaA was pre-incubated with PLP (1:5) on ice for 10 min prior to use.

Experiment [6] has as its system PnaA. The experiment in a line: PnaA reverse transamination reaction, 31P NMR/LC-MS (PnAla to PnPy). In kind it is biochemical, Streptomyces sp. NRRL S-515. To be noted: role: product, 2 hours. The method, then: Biochemical assays of His6-SUMO-PnaA. Typical reaction mixtures (300 μL) contained 20 μM His6-SUMO-PnaA, 1.5 mM L-PnAla, 3 mM oxaloacetate, and 100 μM pyridoxal 5′-phosphate (PLP) in 50 mM HEPES, 150 mM NaCl, pH 7.5. Reactions were incubated at 30° C. for 2 hours, heat inactivated at 65° C. for 10 minutes, and then analyzed by NMR and LC-MS as described above.
Reactions in time course experiments (150 μL) contained 10 μM His6-SUMO-PnaA, 1.5 mM L-PnAla, 10 mM oxaloacetate (OAA), and 100 μM pyridoxal 5′-phosphate (PLP) in 50 mM HEPES, 150 mM NaCl, pH7.5. Samples were where heat inactivated 1, 5, 10, 30, 60, 120, and 240 min after initiation and then analyzed by ^31P NMR as described above.
Reactions examining the effect of keto-acid acceptor concentrations were the same as above, except they contained 1.5, 3, 5, or 10 mM of (OAA). Samples were heat inactivated after 120 min and then analyzed by ^31P NMR as described above.

Another experiment concerns threonine synthase. Conditions: role: inhibitor; cited from earlier work.
In a further experiment the test system is MurA. To be noted: role: inhibitor; mimics phosphoenolpyruvate; cited from earlier work.
Experiment [7] has as its system 1-deoxy-D-xylulose 5-phosphate reductoisomerase. Conditions: role: inhibitor; cited from earlier work.
The test system of another experiment is malaria. Conditions: cited from earlier work.
Where [8] appears, read: role: substrate (PnAla), compared with PnPy.
[9] abbreviates: role: substrate (PnAla, 0.1-1 mM), pH 7.5, 30° C, reverse reaction.

Take `NC(CP(=O)(O)O)C(=O)O` (stereo not drawn) [PnAla, 2-amino-3-phosphonopropionic acid]: the “modification of PnAla with Ala” value with PnaC (with Ala and ATP, up to 16 hrs) is “PnAla remained unmodified”. In addition, in the experiment on PnaC (with chemically synthesized Ala-Val and ATP), the “conversion of PnAla with Ala-Val” value was “PnAla remained unmodified by PnaC”. In addition, in [1], the phosphoserine phosphatase inhibition entry was “inhibitor of phosphoserine phosphatases”. Further, the “conversion of PnAla into phosphonoalamide A” value with PnaB (L-PnAla 1 mM, with Ala-Val 3 mM and ATP 3 mM, pH 9, 30° C) is on record as “complete conversion of PnAla into phosphonoalamide A by PnaB”. Further, the “modification of PnAla with Ala” value in the experiment on PnaB (with Ala and ATP, up to 16 hrs) is listed as “PnAla remained unmodified”. For the same compound, in the experiment with PnaA [2] (setting [8]), the “higher Michaelis constant (fold, reverse reaction compared with PnPy reaction)” value came out at 100 fold and the “lower catalytic efficiency (fold, reverse reaction compared with PnPy reaction)” value amounted to 100 fold. Further, in the experiment with PnaA [2] (setting [9]), the Km came to 327 µM and the kcat was 2.4 s⁻¹. In addition, the “metabotropic glutamate receptor antagonism” value in [3] is “selective antagonist of metabotropic glutamate receptors”. In addition, the “PnAla accumulation at apparent equilibrium” value in the experiment with PnaA with PnaD (Asp varied 1.5, 3, 5 or 10 mM) is recorded as at least 70%. For the same compound, in the experiment on PnaA with PnaD (L-Asp 3 mM, PLP 100 μM, 30° C), the “yield of PnAla from the PepM-coupled forward reaction” value is given as 50%.

For the compound `N[C@@H](CCC(=O)O)C(=O)O` [Glu], in the experiment with PnaA [4], the Km amounted to 7500 µM and the kcat was found to be 0.31 s⁻¹.

Take `C[C@H](N)C(=O)N[C@@H](C)C(=O)N[C@@H](CP(=O)(O)O)C(=O)O` [phosphonoalamide F, reference compound]: in the experiment on bacteria, the “spectrum of antimicrobial activity” value is listed as “differing spectrums of antimicrobial activity”.

As for `O=C(O)C(=O)CP(=O)(O)O` [PnPy, 3-phosphonopyruvate], in the experiment with PnaA [5], the Km came out at 4.8 µM and the kcat was determined as 2.3 s⁻¹. In addition, the “yield of PnPy from the reverse reaction” value with PnaA [6] (L-PnAla 1.5 mM, OAA 3 mM, PLP 100 μM, 30° C) is listed as 48%. In addition, the “PnPy accumulation at apparent equilibrium” value with PnaA [6] (PnAla 1.5 mM, OAA varied 1.5, 3, 5 or 10 mM) is reported as at least 70%.

`N[C@@H](/C=C\CP(=O)(O)O)C(=O)O` [(Z)-L-2-amino-5-phosphono-3-pentenoic acid]: the threonine synthase inhibition entry in the experiment on threonine synthase was “threonine synthase inhibitor”.

`C[C@@H]1O[C@@H]1P(=O)(O)O` [fosfomycin]: the MurA inhibition entry in the experiment with MurA is “covalently inhibit MurA”.

`O=CN(O)CCCP(=O)(O)O` [fosmidomycin]: the “inhibition of 1-deoxy-D-xylulose 5-phosphate reductoisomerase” value in experiment [7] is recorded as “inhibiting 1-deoxy-D-xylulose 5-phosphate reductoisomerase”. Moreover, the “results against malaria in human trials” value in the experiment with malaria is “promising results against malaria in human trials”.

Regarding `CC(C)[C@H](NC(=O)[C@H](C)NC(=O)[C@@H](N)CP(=O)(O)O)C(=O)O` [phosphonoalamide A], the “spectrum of antimicrobial activity” value with bacteria is listed as “differing spectrums of antimicrobial activity”.

(Values after US20260327260A1, “PHOSPHONOALANINE OLIGOPEPTIDES AND METHODS OF MAKING AND USE THEREOF” (priority 2023, published 2026).)
